Our source for the IC50 values is US8603737B2, “Methods for identifying HCV protease inhibitors” (priority 2008, dated 2013).

Bounds are passed on as bounds.

Type in all cases: biochemical
Assay [1] deals with T1, A156S mutant of the HCV NS3/4A 1b protease enzyme (Hepatitis C virus genotype 1b, UniProt P26663, A1182S).
T1 construct: 10× stocks of NS3/4A protease enzyme from Bioenza; purchased Bioenza (Mountain View, Calif.)
Nature of the assay: HCV protease FRET assay, A156S mutant. As to conditions: read-out: Inhibition, HCV A156S (IC50). Here is the method:
(§1) HCV Protease FRET Assay for Mutated NS3/4A 1b Enzymes
(§2) The protocol is a modified FRET-based assay (v—02) from In Vitro Resistance Studies of HCV Serine Protease Inhibitors, 2004, JBC, vol. 279, No. 17, pp 17508-17514. Inherent potency of compounds was assessed against A156S, A156T, D168A, and D168V mutants of the HCV NS3/4A 1b protease enzyme as follows: […]
(§3) 10× stocks of NS3/4A protease enzyme from Bioenza (Mountain View, Calif.) and 1.13×5-FAM/QXL™520 FRET peptide substrate from Anaspec (San Jose, Calif.) were prepared in 50 mM HEPES, pH 7.8, 100 mM NaCl, 5 mM DTT and 20% glycerol. 5 μL of each enzyme were pre-incubated in a Corning (#3573) 384-well, black, non-treated microtiter plate (Corning, N.Y.) for 30 min at 25° C. with a 0.5 μL volume of 50% DMSO and serially diluted compounds prepared in 50% DMSO. Protease reactions were started with the addition of 45 μL of the FRET substrate and monitored for 120 minutes at λex487/λem514 through Quad^4 monochromoters in a Synergy^4 plate reader from BioTek (Winooski, Vt.). At the conclusion of each assay, progress curves from each well were examined for linear reaction kinetics and fit statistics (R^2, absolute sum of squares). Initial velocity (0 minutes to 30+ minutes) from each reaction was determined from the slope of a plot of relative fluorescence units vs time (minutes) and then plotted against inhibitor concentration to estimate IC50 from log[Inhibitor] vs Response, Variable Slope model in GraphPad Prism from GraphPad Software (San Diego, Calif.). […]
(§4) The compound numbers correspond to the compound numbers in Table 3. Compounds having an activity designated as “A” provided an IC50≦10 nM; compounds having an activity designated as “B” provided an IC50>10 nM and ≦100 nM; compounds having an activity designated as “C” provided an IC50>100 nM and ≦1000 nM; and compounds having an activity designated as “D” provided an IC50>1000 nM and <10,000 nM.

The target of assay [2] is T2, wild type HCV NS3/4A 1b protease enzyme (Hepatitis C virus genotype 1b, UniProt P26663).
T2 construct: 10× stocks of NS3/4A protease enzyme from Bioenza; purchased Bioenza (Mountain View, Calif.)
Nature of the assay: HCV protease FRET assay, wild type NS3/4A 1b enzyme. The text has this:
Method B: HCV Protease FRET Assay for Wild Type and Mutated NS3/4A 1b Enzymes (IC50)
A quantitative, fluorescence resonance energy transfer (FRET)-based methodology was employed to identify HCV NS3/4A protease inhibitors. The assay employed a synthetic FRET peptide, derived from the HCV NS5A/5B cleavage site, with the HCV protease to evaluate the activity of compounds against the protease by monitoring the cleavage activity of the complex. A synthetic peptide which encompasses the NS5A-5B junction (NH2-[…]-COOH) (SEQ ID NO: 78) was labeled with Dabcyl and Edans at N- and C-termini, respectively (Invitrogen, Carlsbad, Calif.). Fluorescence measurement was used to estimate the IC50 value of the test compound. […] Upon cleavage of the FRET peptide by HCV NS3/4A proteinase complex (100 ng/mL), the fluorescence is recovered and can be continuously monitored at excitation/emission=340/490 nm.
Assay buffer: 2% CHAPS, 50 mM Tris pH 7.5, 50% glycerol, 2 uM M-2235 (Bachem) substrate. In a 50 μl reaction, add 49 μl assay buffer, 1 μl (1 U) HCV serine protease (Bioenza). Incubate 20 minutes at room temperature. The plate was read at either 350/460 nm (excitation/emission) on a fluorescent micro-plate reader or monitored at one-minute intervals to achieve the kinetic curve.
HCV Protease FRET Assay for WT and Mutated NS3/4A 1b Enzymes (IC50 —APP)
The following protocol was used to generate “apparent” IC50 (IC50—APP)) values as depicted in Table 3, below. Without wishing to be bound by any particular theory, it is believed that IC50—APP, contrasted with IC50 values, may provide a more useful indication of time-dependent inhibition, and are thus more representative of binding affinity. […] Protease reactions were immediately started after enzyme addition with the addition of 45 μL of the FRET substrate and monitored for 60-90 minutes at λex485/λem520 in a Synergy^4 plate reader from BioTek (Winooski, Vt.). […]

In assay [3] the target is T3, D168A mutant of the HCV NS3/4A 1b protease enzyme (Hepatitis C virus genotype 1b, UniProt P26663, D1194A).
T3 construct: 10× stocks of NS3/4A protease enzyme from Bioenza; purchased Bioenza (Mountain View, Calif.)
Nature of the assay: HCV protease FRET assay, D168A mutant. The following applies: read-out: Inhibition, HCV D168A (IC50). Here is the method:
as §1, §2, §3, §4

As a reminder, the IC50 is the point on the concentration scale where inhibition reaches its midpoint. As to `C=C[C@@H]1C[C@]1(NC(=O)[C@@H]1C[C@@H](Oc2cc(-c3ccccc3)nc3cc(OC)ccc23)CN1C(=O)C(NC(=O)OC(C)(C)C)[C@@H](C)OC(=O)/C=C/C)C(=O)NS(=O)(=O)C1CC1` (stereo partly drawn) [Compound 3], the results for the IC50 in assay [1], in assay [2] and in assay [3] were less than 10 nM, less than 10 nM and 100 to 1000 nM, respectively.

As to `C=CC(=O)N(C)C[C@H](NC(=O)OC(C)(C)C)C(=O)N1C[C@H](OC(=O)N2Cc3cccc(F)c3C2)C[C@H]1C(=O)N[C@]1(C(=O)NS(=O)(=O)C2CC2)C[C@H]1C=C` [Compound 4], the figures for the IC50 in assay [1], in assay [2] and in assay [3] were less than 10 nM, less than 10 nM and 10 to 100 nM, respectively.

On to `CC(C)(C)OC(=O)NC1CN(C(=O)CCl)CCC/C=C\[C@@H]2C[C@@]2(C(=O)NS(=O)(=O)C2CC2)NC(=O)[C@@H]2C[C@@H](OC(=O)N3Cc4cccc(F)c4C3)CN2C1=O` (stereo partly drawn) [Compound 8], for which the results for the IC50 in assay [1], in assay [2] and in assay [3] were less than 10 nM, less than 10 nM and 10 to 100 nM, respectively.
